Patent US20250281506A1, “APPLICATION OF HYDROXYPROGESTERONE CAPROATE IN ENHANCING TUMOR TREATMENT EFFECT” (SHENZHEN EVERGREEN THERAPEUTICS CO., LTD., priority 2021, published 2025)
Entries after “also recorded” stand apart in the source; their conditions may differ.

Experiments:
CT26 tumor [1] = experiment: BALB/c mouse CT26 tumor model, tumor volume / tumor inhibition rate; type: in vivo, BALB/c mice; set-up: Tumor Inhibition Rate (Compared with Control Group): concentration or dose not given beside the values; details: for Tumor Inhibition Rate (Compared with Control Group): CT26 model
Procedure: Female BALB/c mice aged 6-8 weeks with a body weight of approximately 20 grams were used. CT26 cells (5.0×106) dissolved in 100 μL of PBS were subcutaneously injected into BALB/c mice. When the tumor volume reached approximately 100 mm^3, the experimental animals were randomly divided into control and various treatment groups for the experiment.
Lenvatinib was administered orally once daily at a dosage of 10 mg/kg. Hydroxyprogesterone caproate was administered via intraperitoneal injection (abbreviated as i.p. in the table below) every two days. Anti-PD-1 antibody (RMP1-14), diluted in PBS, was administered every three days at a dosage of 200 μg per mouse.
Tumor size was measured using calipers twice a week for two-dimensional assessment. Tumor volume was calculated using the formula V=(X2Y)/2, where X and Y represent the shorter and longer diameters of the tumor, respectively, expressed in mm^3.

MC38/hPD-L1 tumor = experiment: Humanized PD-1 mouse MC38/hPD-L1 tumor model; type: in vivo, humanized PD-1 mice
Procedure: Humanized PD-1 mice, female, aged 6-8 weeks, weighing approximately 20 grams, were used. MC38/hPD-L1 cells (5.0×106) dissolved in 100 μL PBS were injected subcutaneously into the humanized PD-1 mice. Upon reaching a tumor volume of approximately ˜100 mm^3, experimental animals were randomly assigned to control and various treatment groups and subsequently initiated with drug administration.
Lenvatinib (Eisai, Japan) was administered orally once daily at a dose of 10 mg/kg. Hydroxyprogesterone Caproate was administered via intraperitoneal injection every two days. Pembrolizumab was administered every three days at a dose of 200 μg per mouse. The duration of drug administration lasted around 20 days.
2) Tumor volume measured twice weekly.

CT26 tumor [2] = experiment: BALB/c mouse CT26 tumor model with anti-PD-L1 antibody 10F.9G2; type: in vivo, BALB/c mice; details: anti-PD-L1 10F.9G2
Procedure: Female BALB/c mice aged 6-8 weeks, weighing approximately 20 grams, were used. CT26 cells (5.0×106) dissolved in 100 μL PBS were subcutaneously injected into the BALB/c mice. When the tumor volume reached ˜100 mm^3, the experimental animals were randomly assigned to control and treatment groups, and drug administration commenced.
Lenvatinib (Eisai, Japan) was administered orally once daily at a dose of 10 mg/kg; Hydroxyprogesterone Caproate was administered via intraperitoneal injection every two days; 10F.9G2 was administered every three days at a dose of 200 μg/mouse. Drug administration continued for approximately 20 days.
2) Tumor volume was measured twice a week, and its size was calculated using the formula: […]

Renca tumor = experiment: BALB/c mouse Renca renal cell carcinoma tumor model, tumor inhibition rate; type: in vivo, BALB/c mice; set-up: Tumor Inhibition Rates (Compared with Control Group): concentration or dose not given beside the values; details: for Tumor Inhibition Rates (Compared with Control Group): Renca model
Procedure: BALB/c female mice, aged 6-8 weeks and weighing around 20 grams, were utilized. Renca cells (3.0×106) dissolved in 100 μL PBS were subcutaneously injected into the BALB/c mice. Upon reaching a tumor volume of about 70 mm^3, experimental animals were randomly distributed into control and treatment groups.
Lenvatinib was administered orally once daily at a dosage of 7.5 mg/kg; hydroxyprogesterone caproate was administered intraperitoneally (abbreviated as i.p. in the table) every two days. Anti-PD-1 antibody (BioXCell, Supplier: Yicon (Beijing) Medical Technology Inc.) was diluted in PBS and administered every four days at a dose of 100 μg per mouse.
Tumor size was measured biweekly using calipers for two-dimensional measurements. The volume was calculated using the formula and expressed in mm^3: V=(X^2Y)/2, where X and Y represent the shorter and longer diameters of the tumor, respectively.

SMILES | Tumor suppression effect (in words) (CT26 tumor [1]; BALB/c mouse CT26 tumor model, HPC 20 mg/kg i.p., Lenvatinib 10 mg/kg p.o., RMP1-14 200 μg/mouse) | Tumor Inhibition Rate (Compared with Control Group) (CT26 tumor [1]; Day 0) [%] | Tumor Inhibition Rate (Compared with Control Group) (CT26 tumor [1]; Day 4) [%] | Tumor Inhibition Rate (Compared with Control Group) (CT26 tumor [1]; Day 7) [%] | Tumor Inhibition Rate (Compared with Control Group) (CT26 tumor [1]; Day 11) [%] | Tumor Inhibition Rate (Compared with Control Group) (CT26 tumor [1]; Day 14) [%] | Tumor Inhibition Rate (Compared with Control Group) (CT26 tumor [1]; Day 18) [%] | Tumor Inhibition Rate (Compared with Control Group) (CT26 tumor [1]; Day 20) [%] | Anti-tumor effect (in words) (MC38/hPD-L1 tumor) | Anti-tumor effect (in words) (CT26 tumor [2]) | Tumor suppression effect (in words) (Renca tumor; BALB/c mouse Renca tumor model) | Tumor Inhibition Rates (Compared with Control Group) (Renca tumor; Day 6) [%] | Tumor Inhibition Rates (Compared with Control Group) (Renca tumor; Day 9) [%] | Tumor Inhibition Rates (Compared with Control Group) (Renca tumor; Day 13) [%] | Tumor Inhibition Rates (Compared with Control Group) (Renca tumor; Day 16) [%] | Tumor Inhibition Rates (Compared with Control Group) (Renca tumor; Day 20) [%]
CCCCCC(=O)O[C@]1(C(C)=O)CC[C@H]2[C@@H]3CCC4=CC(=O)CC[C@]4(C)[C@H]3CC[C@@]21C [HPC, Hydroxyprogesterone caproate] | did not exhibit a favorable tumor suppression effect; also recorded: promoting tumor growth | 0.00 | 3.66 | −14.89 | −13.61 | −31.32 | −47.15 | −37.09 | did not exhibit significant tumor inhibitory effects | did not exhibit significant tumor suppression | exhibits a certain degree of tumor suppression | 0.00 | 40.00 | 48.51 | 43.95 | 56.59
COc1cc2nccc(Oc3ccc(NC(=O)NC4CC4)c(Cl)c3)c2cc1C(N)=O [Lenvatinib] |  |  |  |  |  |  |  |  |  |  |  | 0.00 | 22.92 | 48.51 | 55.37 | 70.68
